PubChem BioAssay (NCI)
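The compound was tested at five concentrations on cells cultured in 96-well plates, with a 48-hour exposure period. Here, GI50 denotes the concentration required for 50% inhibition of growth. TGI: total growth inhibition.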

Columns and labels:
Test in all cases: NCI-60 cell line screen, 48 h
[1] = tested on: UO-31 renal
[2] = tested on: TK-10 renal
[3] = tested on: MALME-3M melanoma
[4] = tested on: 786-0 renal
[5] = tested on: PC-3 prostate
[6] = tested on: UACC-257 melanoma
[7] = tested on: OVCAR-8 ovarian
[8] = tested on: HOP-92 NSCLC
[9] = tested on: A498 renal
[10] = tested on: SW-620 colon
[11] = tested on: MDA-MB-468 breast
[12] = tested on: RXF 393 renal
[13] = tested on: SF-539 CNS
[14] = tested on: DU-145 prostate
[15] = tested on: HCC-2998 colon
[16] = tested on: LOX IMVI melanoma
[17] = tested on: T-47D breast
[18] = tested on: HCT-116 colon
[19] = tested on: HCT-15 colon
[20] = tested on: IGROV1 ovarian
[21] = tested on: NCI-H522 lung
[22] = tested on: SK-OV-3 ovarian
[23] = tested on: NCI/ADR-RES ovarian
[24] = tested on: COLO 205 colon
[25] = tested on: CAKI-1 renal
[26] = tested on: MDA-MB-231 breast
[27] = tested on: A549 NSCLC
[28] = tested on: SNB-19 CNS
[29] = tested on: U251 CNS
[30] = tested on: UACC-62 melanoma
[31] = tested on: OVCAR-5 ovarian
[32] = tested on: EKVX NSCLC
[33] = tested on: MCF7 breast
[34] = tested on: ACHN renal
[35] = tested on: SK-MEL-28 melanoma
[36] = tested on: M14 melanoma
[37] = tested on: NCI-H460 lung
[38] = tested on: SN12C renal
[39] = tested on: BT-549 breast
[40] = tested on: NCI-H23 lung
[41] = tested on: HOP-62 NSCLC
[42] = tested on: MDA-MB-435
[43] = tested on: HS 578T breast
[44] = tested on: SF-295 CNS
[45] = tested on: NCI-H226 lung
[46] = tested on: SK-MEL-5 melanoma
[47] = tested on: SNB-75 CNS
[48] = tested on: SK-MEL-2 melanoma
[49] = tested on: SF-268 CNS
[50] = tested on: OVCAR-3 ovarian
[51] = tested on: HL-60(TB) leukemia
[52] = tested on: MOLT-4 leukemia
[53] = tested on: OVCAR-4 ovarian
[54] = tested on: RPMI-8226 leukemia

O=C(CCl)Nc1ccc(C(=O)/C=C/c2cc3ccccc3nc2Cl)cc1
GI50 [1]: 1.41 µM
TGI [1]: 2.71 µM
GI50 [2]: 1.95 µM
TGI [2]: 4.58 µM
GI50 [3]: 1.67 µM
TGI [3]: 3.22 µM
GI50 [4]: 1.71 µM
TGI [4]: 3.13 µM
GI50 [5]: 1.73 µM
TGI [5]: 3.47 µM
GI50 [6]: 1.62 µM
TGI [6]: 3.23 µM
GI50 [7]: 1.89 µM
TGI [7]: 4.08 µM
GI50 [8]: 1.89 µM
TGI [8]: 3.83 µM
GI50 [9]: 12.7 µM
TGI [9]: 25.6 µM
GI50 [10]: 0.523 µM
TGI [10]: 1.83 µM
GI50 [11]: 1.47 µM
TGI [11]: 2.92 µM
GI50 [12]: 1.56 µM
TGI [12]: 2.98 µM
GI50 [13]: 1.67 µM
TGI [13]: 3.03 µM
GI50 [14]: 1.76 µM
TGI [14]: 3.17 µM
GI50 [15]: 1.58 µM
TGI [15]: 2.96 µM
GI50 [16]: 0.221 µM
TGI [16]: 0.626 µM
GI50 [17]: 1.8 µM
TGI [17]: 3.95 µM
GI50 [18]: 0.175 µM
TGI [18]: 0.319 µM
GI50 [19]: 1.24 µM
TGI [19]: 2.61 µM
GI50 [20]: 1.58 µM
TGI [20]: 3.16 µM
GI50 [21]: 1.55 µM
TGI [21]: 3.02 µM
GI50 [22]: 3.63 µM
TGI [22]: 12.1 µM
GI50 [23]: 2.16 µM
TGI [23]: 4.81 µM
GI50 [24]: 1.75 µM
TGI [24]: 3.23 µM
GI50 [25]: 1.61 µM
TGI [25]: 2.98 µM
GI50 [26]: 1.69 µM
TGI [26]: 3.07 µM
GI50 [27]: 1.78 µM
TGI [27]: 3.48 µM
GI50 [28]: 1.66 µM
TGI [28]: 3.13 µM
GI50 [29]: 1.11 µM
TGI [29]: 2.35 µM
GI50 [30]: 1.53 µM
TGI [30]: 2.9 µM
GI50 [31]: 1.8 µM
TGI [31]: 3.26 µM
GI50 [32]: 1.82 µM
TGI [32]: 3.52 µM
GI50 [33]: 0.294 µM
TGI [33]: 1.43 µM
GI50 [34]: 1.72 µM
TGI [34]: 3.09 µM
GI50 [35]: 1.88 µM
TGI [35]: 3.66 µM
GI50 [36]: 1.57 µM
TGI [36]: 3.04 µM
GI50 [37]: 1.72 µM
TGI [37]: 3.33 µM
GI50 [38]: 1.54 µM
TGI [38]: 2.89 µM
GI50 [39]: 1.21 µM
TGI [39]: 2.48 µM
GI50 [40]: 1.51 µM
TGI [40]: 2.89 µM
GI50 [41]: 2.07 µM
TGI [41]: 3.84 µM
GI50 [42]: 1.12 µM
TGI [42]: 2.35 µM
GI50 [43]: 1.98 µM
TGI [43]: 5.22 µM
GI50 [44]: 1.62 µM
TGI [44]: 3.07 µM
GI50 [45]: 1.9 µM
TGI [45]: 4.82 µM
GI50 [46]: 1.55 µM
TGI [46]: 2.93 µM
GI50 [47]: 1.29 µM
TGI [47]: 2.66 µM
GI50 [48]: 2.14 µM
TGI [48]: 5.67 µM

COc1cc2oc(-c3cccc(C(=O)Nc4cccc([N+](=O)[O-])c4)c3)cc(=O)c2c(OC)c1OC
GI50 [2]: 11.5 µM
TGI [2]: 60.8 µM
GI50 [4]: 3.68 µM
TGI [4]: 21.7 µM
GI50 [5]: 3.55 µM
TGI [5]: > 100 µM
GI50 [49]: 3.49 µM
TGI [49]: > 100 µM
GI50 [50]: 4.44 µM
TGI [50]: > 100 µM
GI50 [8]: 5.46 µM
TGI [8]: 42.4 µM
GI50 [9]: 34.9 µM
TGI [9]: > 100 µM
GI50 [51]: > 100 µM
TGI [51]: > 100 µM
GI50 [12]: 2.28 µM
TGI [12]: 18.8 µM
GI50 [52]: > 100 µM
TGI [52]: > 100 µM
GI50 [53]: 2.72 µM
TGI [53]: 9.09 µM
GI50 [13]: 4.4 µM
TGI [13]: 41.7 µM
GI50 [14]: 4.77 µM
TGI [14]: > 100 µM
GI50 [16]: 5.73 µM
TGI [16]: > 100 µM
GI50 [17]: 3.56 µM
TGI [17]: > 100 µM
GI50 [18]: 3.57 µM
TGI [18]: > 100 µM
GI50 [19]: 5.25 µM
TGI [19]: > 100 µM
GI50 [20]: 7.99 µM
TGI [20]: > 100 µM
GI50 [21]: 3.14 µM
TGI [21]: 23.2 µM
GI50 [22]: 4.26 µM
TGI [22]: > 100 µM
GI50 [24]: > 100 µM
TGI [24]: > 100 µM
GI50 [25]: 2.86 µM
TGI [25]: 10.9 µM
GI50 [26]: 4.26 µM
TGI [26]: > 100 µM
GI50 [27]: 4.94 µM
TGI [27]: > 100 µM
GI50 [28]: 6.91 µM
TGI [28]: 68.9 µM
GI50 [29]: 6.69 µM
TGI [29]: > 100 µM
GI50 [30]: 4.92 µM
TGI [30]: > 100 µM
GI50 [31]: > 100 µM
TGI [31]: > 100 µM
GI50 [32]: 7.32 µM
TGI [32]: > 100 µM
GI50 [33]: 3.8 µM
TGI [33]: > 100 µM
GI50 [34]: 3.22 µM
TGI [34]: > 100 µM
GI50 [36]: > 100 µM
TGI [36]: > 100 µM
GI50 [37]: 3.87 µM
TGI [37]: > 100 µM
GI50 [38]: 3.36 µM
TGI [38]: > 100 µM
GI50 [39]: 2.46 µM
TGI [39]: 8.09 µM
GI50 [40]: 22.5 µM
TGI [40]: > 100 µM
GI50 [41]: 6.31 µM
TGI [41]: 33.6 µM
GI50 [43]: 2.51 µM
TGI [43]: 7.23 µM
GI50 [44]: 2.51 µM
TGI [44]: 6.9 µM
GI50 [45]: 2.29 µM
TGI [45]: 7.38 µM
GI50 [46]: 5.17 µM
TGI [46]: > 100 µM
GI50 [47]: 1.99 µM
TGI [47]: 6.08 µM
GI50 [48]: 11.9 µM
TGI [48]: > 100 µM
GI50 [54]: 2.88 µM
TGI [54]: > 100 µM
